Experimental findings from US20240408169A1 (priority 2023, published 2024) are described below.

One test concerns the target T1, CyclinA2/CDK2 (Homo sapiens, UniProt P20248).
T1 construct: purchased CRELUX Protein Services
Kind of test: Fluorescence Polarization (FP) competitive binding assay, Cyclin A2/Cdk2.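 Further: plates equilibrated two hours at room temperature before polarization reading, IC50 fitted from eight-concentration compound titration curves.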 The note with it: 8 nM Cyclin A2/Cdk2, 2 nM FAM probe; average of 2-3 independent experiments; read-out: Cyclin A FP IC50. On the technique in general: Polarisation of emitted light reports the rotation of a fluorescent probe.

Another test deals with T2, CyclinB1/CDK1 (Homo sapiens, UniProt P14635).
T2 construct: purchased Eurofins, discovery 14-450
Nature of the test: Fluorescence Polarization (FP) competitive binding assay, Cyclin B1/Cdk1.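 Further: fluorescence polarization read after equilibration at room temperature, with IC50 taken from serially diluted dose-response curves.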 The note with it: 10 nM Cyclin B1/Cdk1, 2 nM FAM probe; average of 2-3 independent experiments; read-out: Cyclin B FP IC50.

The target of another test is T3, CyclinE1/CDK2 (Homo sapiens, UniProt P24864).
T3 construct: purchased Eurofins, discovery 14-475
Nature of the test: Fluorescence Polarization (FP) competitive binding assay, Cyclin E1/Cdk2.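 Further: readings taken after two-hour equilibration at room temperature in HEPES buffer with NaCl, DTT, NP-40 and BSA, IC50 fitted from eight-concentration serial dilution series.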 The settings on record: 10 nM Cyclin E1/Cdk2, 2 nM FAM probe; average of 2-3 independent experiments; read-out: Cyclin E FP IC50.

The next test relates to NCI-H1048 cells. Nature of the test: MTT proliferation assay, NCI-H1048.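 Further: Dose-response in 96-well plates over 8 or 10 concentration points, with exposure spanning 3-4 cell doublings.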 The test is classed as cell-based. The note with it: 5 days compound exposure, 1:3 serial dilution starting at 10 μM. A general note: Tetrazolium dyes change colour on reduction, which living cells bring about.
A further test relates to OVCAR3 cells. Kind of test: MTT proliferation assay, OVCAR3.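 Further: compound given as an 8- or 10-point series, one day after plating, with exposure covering roughly 3-4 cell doublings.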 The settings on record: 5 days compound exposure, 1:3 serial dilution starting at 10 μM. The test is classed as cell-based.

*1 amine or outer side, *2 acyl side, *3 side chain or, on linkers, in order; H or OH if unused. Where a SMILES comes first, the peptide text is derived from it. Bridges are numbered along the chain shown (N, C = ends). [ ]: non-standard residue; d: D form. The star is where a group is joined. X146 = CC(C)C(=O)N1[C@@H]2CC[C@H]1C=C(c1ccc(Cl)cc1C[C@@H](C(=O)[*:2])N(C)[*:1])C2; X124 = CC(C)C(=O)N1[C@@H]2CC[C@H]1C=C(c1ccc(F)cc1C[C@@H](C(=O)[*:2])N(C)[*:1])C2; X7 = CC(C)C(=O)N1[C@H]2CC[C@@H]1C=C(c1ccc(F)cc1C[C@@H](C(=O)[*:2])N(C)[*:1])C2; X141 = CN([C@@H](Cc1cc(Cl)ccc1C1=CCN(S(C)(=O)=O)C1)C(=O)[*:2])[*:1]; X187 = CC(=O)N1CC=C(c2ccc(Cl)cc2C[C@@H](C(=O)[*:2])N(C)[*:1])C1; X196 = CN([C@@H](Cc1cc(F)ccc1-c1cnn2ccncc12)C(=O)[*:2])[*:1]; NMehhhLys(Me) = CN([C@@H](CCCCCCCN(C)[*:3])C(=O)[*:2])[*:1]; X159 = CN([C@@H](Cc1cc(Cl)cnc1Oc1cnn(C)c1)C(=O)[*:2])[*:1]; X163 = CN([C@@H](Cc1cc(Cl)ccc1N1CCOCC1)C(=O)[*:2])[*:1]; NMe(hhhLys) = CN([C@@H](CCCCCCCN[*:3])C(=O)[*:2])[*:1]; X152 = CN([C@@H](Cc1cc(Cl)ccc1OC1CC1)C(=O)[*:2])[*:1]; cBuCO(3,3-F2-1-CF3) = O=C(C1(C(F)(F)F)CC(F)(F)C1)*; X133 = Cc1ncc(Cl)cc1C[C@@H](C(=O)[*:2])N(C)[*:1]; Pro(trans-4-F) = O=C(O)[C@@H]1C[C@@H](F)CN1; Gly(cPr) = N[C@H](C(=O)O)C1CC1

As a reminder, the IC50 is the midpoint of a concentration-inhibition curve. Usually GI50 stands for the concentration that inhibits growth by half. Low readings indicate greater sensitivity of the cells, high ones lower sensitivity of the cells. For the molecule `CC(=O)N1CC=C(c2ccc(Cl)cc2C[C@H]2C(=O)N(C)CCCCCCC[C@H](N(C)C(=O)[C@@H](NC(=O)[C@@H]3C[C@@H](F)CN3C(=O)C3(C(F)(F)F)CC(F)(F)C3)C3CC3)C(=O)N[C@@H](CC(C)C)C(=O)N2C)C1` [Example 308] ({cBuCO(3,3-F2-1-CF3)}-[Pro(trans-4-F)][Gly(cPr)][NMehhhLys(Me)]L[X187]; lactam 3-C), the values for the IC50 at CyclinA2/CDK2, at CyclinB1/CDK1 and at CyclinE1/CDK2 were 0.02 µM, 0.02 µM and 0.84 µM, respectively. Further, the GI50 with NCI-H1048 cells and in the test with OVCAR3 cells was 0.01 µM in each case.
As to `CC(C)C[C@@H]1NC(=O)[C@@H](N(C)C(=O)[C@@H](NC(=O)[C@@H]2C[C@@H](F)CN2C(=O)C2(C(F)(F)F)CC(F)(F)C2)C2CC2)CCCCCCCN(C)C(=O)[C@H](Cc2cc(Cl)ccc2C2=CCN(S(C)(=O)=O)C2)N(C)C1=O` [Example 309] ({cBuCO(3,3-F2-1-CF3)}-[Pro(trans-4-F)][Gly(cPr)][NMehhhLys(Me)]L[X141]; lactam 3-C), the values for the 50% inhibitory concentration (IC50) on CyclinA2/CDK2, at CyclinB1/CDK1 and on CyclinE1/CDK2 were 0.02 µM, 0.02 µM and 0.93 µM, respectively. Also, the GI50 in the test with NCI-H1048 cells and in the test with OVCAR3 cells was 0.01 µM each time.
`CC(C)C[C@@H]1NC(=O)[C@@H](N(C)C(=O)[C@@H](NC(=O)[C@@H]2C[C@@H](F)CN2C(=O)C2(C(F)(F)F)CC(F)(F)C2)C2CC2)CCCCCCCN(C)C(=O)[C@H](Cc2cc(F)ccc2-c2cnn3ccncc23)N(C)C1=O` [Example 310] ({cBuCO(3,3-F2-1-CF3)}-[Pro(trans-4-F)][Gly(cPr)][NMehhhLys(Me)]L[X196]; lactam 3-C): the 50% inhibitory concentration (IC50) on CyclinA2/CDK2 amounted to 0.08 µM; at CyclinB1/CDK1, 0.02 µM; at CyclinE1/CDK2, 0.99 µM. Moreover, the GI50 in the test with NCI-H1048 cells and in the test on OVCAR3 cells was 0.01 µM each time.
With `CC(C)C[C@@H]1NC(=O)[C@@H](N(C)C(=O)[C@@H](NC(=O)[C@@H]2C[C@@H](F)CN2C(=O)C2(C(F)(F)F)CC(F)(F)C2)C2CC2)CCCCCCCNC(=O)[C@H](Cc2cc(Cl)ccc2OC2CC2)N(C)C1=O` [Example 311] ({cBuCO(3,3-F2-1-CF3)}-[Pro(trans-4-F)][Gly(cPr)][NMe(hhhLys)]L[X152]; lactam 3-C), the IC50 is 0.05 µM at CyclinA2/CDK2, 0.02 µM at CyclinB1/CDK1 and 0.2 µM on CyclinE1/CDK2. For the same molecule, the GI50 in the test on NCI-H1048 cells is 0.02 µM; in the test with OVCAR3 cells, 0.03 µM.
As for `CC(C)C[C@@H]1NC(=O)[C@@H](N(C)C(=O)[C@@H](NC(=O)[C@@H]2C[C@@H](F)CN2C(=O)C2(C(F)(F)F)CC(F)(F)C2)C2CC2)CCCCCCCNC(=O)[C@H](Cc2cc(Cl)ccc2C2=C[C@@H]3CC[C@H](C2)N3C(=O)C(C)C)N(C)C1=O` [Example 312] ({cBuCO(3,3-F2-1-CF3)}-[Pro(trans-4-F)][Gly(cPr)][NMe(hhhLys)]L[X146]; lactam 3-C), the IC50 was determined as 0.02 µM at CyclinA2/CDK2, 0.02 µM at CyclinB1/CDK1 and 0.74 µM on CyclinE1/CDK2. The GI50 in the test with NCI-H1048 cells came out at 0.02 µM; in the test on OVCAR3 cells, 0.03 µM.
As for `CC(C)C[C@@H]1NC(=O)[C@@H](N(C)C(=O)[C@@H](NC(=O)[C@@H]2C[C@@H](F)CN2C(=O)C2(C(F)(F)F)CC(F)(F)C2)C2CC2)CCCCCCCN(C)C(=O)[C@H](Cc2cc(Cl)ccc2OC2CC2)N(C)C1=O` [Example 314] ({cBuCO(3,3-F2-1-CF3)}-[Pro(trans-4-F)][Gly(cPr)][NMehhhLys(Me)]L[X152]; lactam 3-C), the IC50 at CyclinA2/CDK2 worked out at 0.03 µM; on CyclinB1/CDK1, 0.02 µM; at CyclinE1/CDK2, 0.14 µM. In addition, the GI50 in the test with NCI-H1048 cells and with OVCAR3 cells was 0.01 µM in each case.
Regarding `CC(C)C[C@@H]1NC(=O)[C@@H](N(C)C(=O)[C@@H](NC(=O)[C@@H]2C[C@@H](F)CN2C(=O)C2(C(F)(F)F)CC(F)(F)C2)C2CC2)CCCCCCCNC(=O)[C@H](Cc2cc(F)ccc2C2=C[C@@H]3CC[C@H](C2)N3C(=O)C(C)C)N(C)C1=O` [Example 315] ({cBuCO(3,3-F2-1-CF3)}-[Pro(trans-4-F)][Gly(cPr)][NMe(hhhLys)]L[X124]; lactam 3-C), the IC50 amounted to 0.03 µM on CyclinA2/CDK2, 0.02 µM on CyclinB1/CDK1 and 0.42 µM at CyclinE1/CDK2. The GI50 with NCI-H1048 cells and in the test with OVCAR3 cells was 0.02 µM each time.
For `CC(C)C[C@@H]1NC(=O)[C@@H](N(C)C(=O)[C@@H](NC(=O)[C@@H]2C[C@@H](F)CN2C(=O)C2(C(F)(F)F)CC(F)(F)C2)C2CC2)CCCCCCCNC(=O)[C@H](Cc2cc(F)ccc2C2=C[C@H]3CC[C@@H](C2)N3C(=O)C(C)C)N(C)C1=O` [Example 316] ({cBuCO(3,3-F2-1-CF3)}-[Pro(trans-4-F)][Gly(cPr)][NMe(hhhLys)]L[X7]; lactam 3-C), the IC50 at CyclinA2/CDK2 worked out at 0.02 µM; on CyclinB1/CDK1, 0.02 µM; at CyclinE1/CDK2, 0.29 µM. Also, the 50% growth inhibitory concentration (GI50) in the test on NCI-H1048 cells and with OVCAR3 cells was 0.01 µM in each case.
Regarding `CC(C)C[C@@H]1NC(=O)[C@@H](N(C)C(=O)[C@@H](NC(=O)[C@@H]2C[C@@H](F)CN2C(=O)C2(C(F)(F)F)CC(F)(F)C2)C2CC2)CCCCCCCN(C)C(=O)[C@H](Cc2cc(F)ccc2C2=C[C@@H]3CC[C@H](C2)N3C(=O)C(C)C)N(C)C1=O` [Example 317] ({cBuCO(3,3-F2-1-CF3)}-[Pro(trans-4-F)][Gly(cPr)][NMehhhLys(Me)]L[X124]; lactam 3-C), the IC50 came to 0.03 µM at CyclinA2/CDK2, 0.02 µM at CyclinB1/CDK1 and 0.25 µM at CyclinE1/CDK2. Also, the GI50 in the test on NCI-H1048 cells and with OVCAR3 cells was 0.01 µM in each case.
Consider `CC(C)C[C@@H]1NC(=O)[C@@H](N(C)C(=O)[C@@H](NC(=O)[C@@H]2C[C@@H](F)CN2C(=O)C2(C(F)(F)F)CC(F)(F)C2)C2CC2)CCCCCCCN(C)C(=O)[C@H](Cc2cc(Cl)ccc2N2CCOCC2)N(C)C1=O` [Example 319] ({cBuCO(3,3-F2-1-CF3)}-[Pro(trans-4-F)][Gly(cPr)][NMehhhLys(Me)]L[X163]; lactam 3-C), for which the IC50 at CyclinA2/CDK2 was 0.03 µM; at CyclinB1/CDK1, 0.02 µM; on CyclinE1/CDK2 it was 1.35 µM. Further, the GI50 in the test with NCI-H1048 cells was 0.01 µM; with OVCAR3 cells, 0.02 µM.
On to `Cc1ncc(Cl)cc1C[C@H]1C(=O)N(C)CCCCCCC[C@H](N(C)C(=O)[C@@H](NC(=O)[C@@H]2C[C@@H](F)CN2C(=O)C2(C(F)(F)F)CC(F)(F)C2)C2CC2)C(=O)N[C@@H](CC(C)C)C(=O)N1C` [Example 322] ({cBuCO(3,3-F2-1-CF3)}-[Pro(trans-4-F)][Gly(cPr)][NMehhhLys(Me)]L[X133]; lactam 3-C), for which the IC50 on CyclinA2/CDK2 was determined as 0.08 µM; on CyclinB1/CDK1, 0.02 µM; on CyclinE1/CDK2 it was 0.53 µM. Moreover, the results for the GI50 in the test with NCI-H1048 cells and in the test with OVCAR3 cells were 0.03 µM and 0.06 µM, respectively.
For the molecule `CC(C)C[C@@H]1NC(=O)[C@@H](N(C)C(=O)[C@@H](NC(=O)[C@@H]2C[C@@H](F)CN2C(=O)C2(C(F)(F)F)CC(F)(F)C2)C2CC2)CCCCCCCN(C)C(=O)[C@H](Cc2cc(Cl)cnc2Oc2cnn(C)c2)N(C)C1=O` [Example 323] ({cBuCO(3,3-F2-1-CF3)}-[Pro(trans-4-F)][Gly(cPr)][NMehhhLys(Me)]L[X159]; lactam 3-C), the IC50 on CyclinA2/CDK2 came out at 0.03 µM; on CyclinB1/CDK1, 0.02 µM; on CyclinE1/CDK2 it was 0.24 µM. For the same molecule, the GI50 in the test with NCI-H1048 cells and in the test on OVCAR3 cells was 0.01 µM throughout.
